melting point [°C] | SMILES
206 | CCCN1C(=O)/C(=C/c2c[nH]c3ncccc23)N=C1C [Example 87, (5Z)-2-methyl-3-propyl-5-(1H-pyrrolo[2,3-b]pyridin-3-ylmethylidene)-3,5-dihydro-4H-imidazol-4-one]
277 to 280 | CC(C)C1=N/C(=C\c2c[nH]c3ncc(Cl)cc23)C(=O)N1 [Example 80, (5Z)-2-(1-methylethyl)-5-(5-chloro-1H-pyrrolo[2,3-b]pyridin-3-ylmethylidene)-3,5-dihydro-4H-imidazol-4-one]
281 | COCCN(C)C1=N/C(=C\c2c[nH]c3ncc(Cl)cc23)C(=O)N1 [Example 95, (5Z)-5-[(5-chloro-1H-pyrrolo[2,3-b]pyridin-3-yl)methylidene]-2-[(2-methoxyethyl)(methyl)amino]-3,5-dihydro-4H-imidazol-4-one]
274 | CC(C)CCC1=N/C(=C\c2c[nH]c3ncccc23)C(=O)N1 [Example 68, (5Z)-2-(3-methylbutyl)-5-(1H-pyrrolo[2,3-b]pyridin-3-ylmethylidene)-3,5-dihydro-4H-imidazol-4-one]
350 | CN(Cc1ccccn1)C1=N/C(=C\c2c[nH]c3ncc(Cl)cc23)C(=O)N1 [Example 96, (5Z)-5-[(5-chloro-1H-pyrrolo[2,3-b]pyridin-3-yl)methylidene]-2-[methyl(pyridin-2-ylmethyl)amino]-3,5-dihydro-4H-imidazol-4-one]
310 | CN(Cc1ccccc1)C1=N/C(=C\c2c[nH]c3ncc(Cl)cc23)C(=O)N1 [Example 93, (5Z)-2-[benzyl(methyl)amino]-5-[(5-chloro-1H-pyrrolo[2,3-b]pyridin-3-yl)methylidene]-3,5-dihydro-4H-imidazol-4-one]
282 | CC(C)CC1=N/C(=C\c2c[nH]c3ncc(Cl)cc23)C(=O)N1C [Example 76, (5Z)-5-[(5-chloro-1H-pyrrolo[2,3-b]pyridin-3-yl)methylidene]-3-methyl-2-(2-methylpropyl)-3,5-dihydro-4H-imidazol-4-one]
317 to 319 | O=C1NC(C2CCOCC2)=N/C1=C\c1c[nH]c2ncccc12 [Example 71, (5Z)-5-(1H-pyrrolo[2,3-b]pyridin-3-ylmethylidene)-2-(tetrahydro-2H-pyran-4-yl)-3,5-dihydro-4H-imidazol-4-one]
222 to 224 | CC(C)C1=N/C(=C\c2c[nH]c3ncccc23)C(=O)N1C [Example 81, (5Z)-3-methyl-2-(1-methylethyl)-5-(1H-pyrrolo[2,3-b]pyridin-3-ylmethylidene)-3,5-dihydro-4H-imidazol-4-one]
292 to 293 | CC(C)CC1=N/C(=C\c2c[nH]c3ncccc23)C(=O)N1 [Example 74, (5Z)-2-(2-methylpropyl)-5-(1H-pyrrolo[2,3-b]pyridin-3-ylmethylidene)-3,5-dihydro-4H-imidazol-4-one]
338 | CN1C(=O)/C(=C/c2c[nH]c3ncc(Cl)cc23)N=C1C1CCOCC1 [Example 73, (5Z)-5-[(5-chloro-1H-pyrrolo[2,3-b]pyridin-3-yl)methylidene]-3-methyl-2-(tetrahydro-2H-pyran-4-yl)-3,5-dihydro-4H-imidazol-4-one]
261 to 262 | CN1C(=O)/C(=C/c2c[nH]c3ncccc23)N=C1C1CCCCC1 [Example 70, (5Z)-2-cyclohexyl-3-methyl-5-(1H-pyrrolo[2,3-b]pyridin-3-ylmethylidene)-3,5-dihydro-4H-imidazol-4-one]
283 to 285 | CN1C(=O)/C(=C/c2c[nH]c3ncccc23)N=C1C1CCOCC1 [Example 72, (5Z)-5-[(1H-pyrrolo[2,3-b]pyridin-3-yl)methylidene]-3-methyl-2-(tetrahydro-2H-pyran-4-yl)-3,5-dihydro-4H-imidazol-4-one]
309 to 310 | CC(C)C1=N/C(=C\c2c[nH]c3ncccc23)C(=O)N1 [Example 79, (5Z)-2-(1-methylethyl)-5-(1H-pyrrolo[2,3-b]pyridin-3-ylmethylidene)-3,5-dihydro-4H-imidazol-4-one]
282 | CC(C)C1=N/C(=C\c2c[nH]c3ncc(Cl)cc23)C(=O)N1C [Example 82, (5Z)-5-[(5-chloro-1H-pyrrolo[2,3-b]pyridin-3-yl)methylidene]-3-methyl-2-(1-methylethyl)-3,5-dihydro-4H-imidazol-4-one]
287 | O=C1/C(=C/c2c[nH]c3ncc(Cl)cc23)N=C(Oc2ccccc2)N1c1ccccc1 [Example 97, (5Z)-5-[(5-chloro-1H-pyrrolo[2,3-b]pyridin-3-yl)methylidene]-2-phenoxy-3-phenyl-3,5-dihydro-4H-imidazol-4-one]

The remaining lines, values behind:

SMILES | melting point [°C]
CCCCC1=N/C(=C\c2c[nH]c3ncc(Cl)cc23)C(=O)N1 [Example 64, (5Z)-2-butyl-5-[(5-chloro-1H-pyrrolo[2,3-b]pyridin-3-yl)methylidene]-3,5-dihydro-4H-imidazol-4-one] | 288 to 290
Cc1cnc2[nH]cc(/C=C3\N=C(NCC(C)C)NC3=O)c2c1 [Example 44, (5Z)-2-[(2-methylpropyl)amino]-5-[(5-methyl-1H-pyrrolo[2,3-b]pyridin-3-yl)methylidene]-3,5-dihydro-4H-imidazol-4-one] | 338 to 339
CN(C)C1=N/C(=C\c2c[nH]c3ncc(Cl)cc23)C(=O)N1 [Example 32, (5Z)-5-[(5-chloro-1H-pyrrolo[2,3-b]pyridin-3-yl)methylidene]-2-(dimethylamino)-3,5-dihydro-4H-imidazol-4-one] | 350
O=C1NC(SCc2ccccc2)=N/C1=C\c1c[nH]c2ncc(Cl)cc12 [Example 61, (5Z)-2-(benzylsulphanyl)-5-[(5-chloro-1H-pyrrolo[2,3-b]pyridin-3-yl)methylidene]-3,5-dihydro-4H-imidazol-4-one] | 313 to 315
O=C1NC(N2CCCCC2)=N/C1=C\c1c[nH]c2ncc(Cl)cc12 [Example 30, (5Z)-5-[(5-chloro-1H-pyrrolo[2,3-b]pyridin-3-yl)methylidene]-2-piperidin-1-yl-3,5-dihydro-4H-imidazol-4-one] | 315 to 320
O=C1NC(N2CCCCCC2)=N/C1=C\c1c[nH]c2ncc(Cl)cc12 [Example 25, (5Z)-2-azepan-1-yl-5-[(5-chloro-1H-pyrrolo[2,3-b]pyridin-3-yl)methylidene]-3,5-dihydro-4H-imidazol-4-one] | 310 to 320
CN1CCN(C2=N/C(=C\c3c[nH]c4ncc(-c5ccccc5)cc34)C(=O)N2)CC1 [Example 41, (5Z)-2-(4-methylpiperazin-1-yl)-5-[(5-phenyl-1H-pyrrolo[2,3-b]pyridin-3-yl)methylidene]-3,5-dihydro-4H-imidazol-4-one] | 304
O=C1NC(N2CCCCC2)=N/C1=C\c1c[nH]c2ncc(-c3ccccc3)cc12 [Example 40, (5Z)-5-[(5-phenyl-1H-pyrrolo[2,3-b]pyridin-3-yl)methylidene]-2-piperidin-1-yl-3,5-dihydro-4H-imidazol-4-one] | 307
O=C1NC(NCC2CC2)=N/C1=C\c1c[nH]c2ncc(N3CCOCC3)cc12 [Example 51, (5Z)-2-[(cyclopropylmethyl)amino]-5-[(5-morpholin-4-yl-1H-pyrrolo[2,3-b]pyridin-3-yl)methylidene]-3,5-dihydro-4H-imidazol-4-one] | 331
N#Cc1cnc2[nH]cc(/C=C3\N=C(NCC4CC4)NC3=O)c2c1 [Example 37, 3-[(Z)-{2-[(cyclopropylmethyl)amino]-5-oxo-1,5-dihydro-4H-imidazol-4-ylidene}methyl]-1H-pyrrolo[2,3-b]pyridine-5-carbonitrile] | 335
O=C1NC(N2CCCCCC2)=N/C1=C\c1c[nH]c2ncc(-c3ccccc3)cc12 [Example 42, (5Z)-2-azepan-1-yl-5-[(5-phenyl-1H-pyrrolo[2,3-b]pyridin-3-yl)methylidene]-3,5-dihydro-4H-imidazol-4-one] | 302
Cc1cnc2[nH]cc(/C=C3\N=C(N4CCCCC4)NC3=O)c2c1 [Example 45, (5Z)-5-[(5-methyl-1H-pyrrolo[2,3-b]pyridin-3-yl)methylidene]-2-piperidin-1-yl-3,5-dihydro-4H-imidazol-4-one] | 320 to 321
CCCSC1=N/C(=C\c2c[nH]c3ncc(Cl)cc23)C(=O)N1 [Example 62, (5Z)-5-[(5-chloro-1H-pyrrolo[2,3-b]pyridin-3-yl)methylidene]-2-(propylsulphanyl)-3,5-dihydro-4H-imidazol-4-one] | 316 to 318
O=C1NC(CCc2ccccc2)=N/C1=C\c1c[nH]c2ncccc12 [Example 67, (5Z)-2-(2-Phenylethyl)-5-(1H-pyrrolo[2,3-b]pyridin-3-ylmethylidene)-3,5-dihydro-4H-imidazol-4-one] | 270 to 272
COc1cnc2[nH]cc(/C=C3\N=C(NCC4CC4)NC3=O)c2c1 [Example 34, (5Z)-2-[(cyclopropylmethyl)amino]-5-[(5-methoxy-1H-pyrrolo[2,3-b]pyridin-3-yl)methylidene]-3,5-dihydro-4H-imidazol-4-one] | 280 to 286
Cc1cnc2[nH]cc(/C=C3\N=C(N4CCN(c5ccccc5)CC4)NC3=O)c2c1 [Example 46, (5Z)-5-[(5-methyl-1H-pyrrolo[2,3-b]pyridin-3-yl)methylidene]-2-(4-phenylpiperazin-1-yl)-3,5-dihydro-4H-imidazol-4-one] | 331 to 332
Cc1cnc2[nH]cc(/C=C3\N=C(NCC4CC4)NC3=O)c2c1 [Example 43, (5Z)-2-[(cyclopropylmethyl)amino]-5-[(5-methyl-1H-pyrrolo[2,3-b]pyridin-3-yl)methylidene]-3,5-dihydro-4H-imidazol-4-one] | 319 to 320
O=C1NC(NCC2CC2)=N/C1=C\c1c[nH]c2ncc(C(F)(F)F)cc12 [Example 48, (5Z)-2-[(cyclopropylmethyl)amino]-5-{[5-(trifluoromethyl)-1H-pyrrolo[2,3-b]pyridin-3-yl]methylidene}-3,5-dihydro-4H-imidazol-4-one] | 350
CC(C)CNC1=N/C(=C\c2c[nH]c3ncc(Cl)cc23)C(=O)N1 [Example 29, (5Z)-5-[(5-chloro-1H-pyrrolo[2,3-b]pyridin-3-yl)methylidene]-2-[(2-methylpropyl)amino]-3,5-dihydro-4H-imidazol-4-one] | 325 to 330
